Test systems include DMS 114 small cell lung; HOP-18 NSCLC; DMS 273 small cell lung; LXFL 529 NSCLC; RXF-631 renal; SNB-78 CNS; M19-MEL melanoma; XF 498 CNS; MDA-N.
Holding throughout (assay): NCI tumour cell line growth inhibition, 48 h

The structures appear in SMILES notation. In brackets after ≈: the same amount, converted by molar mass.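 96-well plates; 48 h exposure; 5 concentrations. Endpoints by linear interpolation between flanking doses. Not reached: highest tested concentration assigned. Abbreviation: GI50, concentration required for 50% inhibition of growth. TGI: concentration producing complete growth inhibition.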 Activity calls are given as the source filed them. Cut-off read from the data, not from the text of the source: active = GI50 below about 0.43 µM; inactive = the rest.

Consider `Cl.[O-]c1cccc2cccnc12.[O-]c1cccc2cccnc12.[O-]c1cccc2cccnc12.[O-]c1cccc2cccnc12.[Ti+4]`, for which the TGI is 0.365 µM in the experiment on DMS 114 small cell lung, more than 100 µM in the experiment with HOP-18 NSCLC and 1.69 µM with DMS 273 small cell lung.

In the case of `C[C@H]1[C@H](C)CC[C@]2(C(=O)O)CCC3(COC(=O)/C=C/c4ccc(O)cc4)C(=CCC4[C@@]5(C)CC[C@H](O)C(C)(C)C5CC[C@]43C)[C@H]12` (stereo partly drawn), the TGI with DMS 114 small cell lung was 32 µM; in the experiment with LXFL 529 NSCLC, 24.8 µM; in the experiment with RXF-631 renal it was 30.4 µM; in the experiment with SNB-78 CNS, more than 100 µM; in the experiment on HOP-18 NSCLC, 33.9 µM; in the experiment on M19-MEL melanoma it was more than 100 µM. Also, the TGI in the experiment on DMS 273 small cell lung was determined as 25.9 µM.

Regarding `O=C(CC1(O)C(=O)Nc2c(Cl)cc(Cl)cc21)c1ccc([N+](=O)[O-])cc1` (stereo not drawn), the TGI in the experiment with DMS 114 small cell lung is 53.1 µM; in the experiment with LXFL 529 NSCLC it was more than 51.5 µM; with SNB-78 CNS it was more than 78.9 µM; in the experiment on XF 498 CNS, more than 100 µM; in the experiment on HOP-18 NSCLC, more than 100 µM; in the experiment with M19-MEL melanoma, 22 µM. The TGI with DMS 273 small cell lung was more than 100 µM.

With `CCc1cc2c(Nc3ccccc3)c3c(nc2s1)CCCC3`, the TGI was more than 100 µM with DMS 114 small cell lung; more than 100 µM in the experiment with LXFL 529 NSCLC; more than 100 µM with RXF-631 renal; more than 100 µM in the experiment on SNB-78 CNS; 85.1 µM in the experiment on XF 498 CNS; more than 100 µM in the experiment with HOP-18 NSCLC. In addition, the TGI in the experiment with M19-MEL melanoma and with DMS 273 small cell lung was more than 100 µM in each case.

In the experiment with MDA-N, `O=C(O)C1C2C=CC(O2)C1C(=O)NCc1ccncc1` (stereo not drawn) showed a TGI of more than 100 µM.

Consider `C=C1C(=O)O[C@H]2C3OC3(C)CC/C=C(/C(=O)OC)[C@@H](OC(C)=O)[C@H](OC(=O)C3(C)OC3C)[C@H]12` (stereo partly drawn), for which the GI50 was 0.604 µg/mL (≈ 1.3 µM) in the experiment with DMS 114 small cell lung, 1.81 µg/mL with SNB-78 CNS, 1.94 µg/mL in the experiment with M19-MEL melanoma and 1.1 µg/mL in the experiment with DMS 273 small cell lung. In addition, the TGI in the experiment with DMS 114 small cell lung came to 1.8 µg/mL; in the experiment on SNB-78 CNS, 6.79 µg/mL; with MDA-N, 3.46 µM; in the experiment with M19-MEL melanoma, 5.17 µg/mL; with DMS 273 small cell lung, 3.73 µg/mL. Further, the outcome in the experiment on LXFL 529 NSCLC and in the experiment on HOP-18 NSCLC was inactive.

Take `CC(/C=C1\CCC(CN(C)C)C1=O)c1cccc(Br)c1` (stereo not drawn): the TGI stood at 54.8 µM with DMS 114 small cell lung; 17.1 µM with LXFL 529 NSCLC; 16.9 µM in the experiment on RXF-631 renal; 44.7 µM in the experiment with SNB-78 CNS; 35.1 µM in the experiment on XF 498 CNS; 33.9 µM with HOP-18 NSCLC. Moreover, in the experiment with M19-MEL melanoma, the TGI came to 50.2 µM.

In turn, `CC(C)c1ccc(C(O)(C(=O)O)c2ccc(C(C)C)cc2)cc1` came in with a TGI with MDA-N of more than 100 µM.

For the compound `Cc1cc(=O)n2c(cc3cccccc32)n1`, the TGI in the experiment on LXFL 529 NSCLC, with SNB-78 CNS and in the experiment with DMS 273 small cell lung was more than 100 µM throughout.

As to `COc1ccc(C(=O)Nc2ccn(CCOC(=O)c3ccc(OC)cc3)c(=O)n2)cc1`, the TGI in the experiment with DMS 114 small cell lung, in the experiment with LXFL 529 NSCLC, in the experiment on RXF-631 renal, in the experiment on SNB-78 CNS, in the experiment with XF 498 CNS and with HOP-18 NSCLC was more than 100 µM throughout. The TGI in the experiment with M19-MEL melanoma and in the experiment with DMS 273 small cell lung was more than 100 µM throughout.

Consider `CC(Oc1ccc2c(=O)cc(-c3ccccc3)oc2c1)C(=O)O` (stereo not drawn), for which the TGI in the experiment with DMS 114 small cell lung, with LXFL 529 NSCLC, with SNB-78 CNS, with XF 498 CNS, with HOP-18 NSCLC and with M19-MEL melanoma was more than 100 µM each time.

In the case of `O=c1oc2c(O)c(O)cc3c(=O)oc4c(O)c(O)cc1c4c23`, the TGI in the experiment with DMS 114 small cell lung, with LXFL 529 NSCLC, in the experiment with SNB-78 CNS, in the experiment with XF 498 CNS, with M19-MEL melanoma and in the experiment on DMS 273 small cell lung was more than 100 µM each time. The GI50 with SNB-78 CNS, in the experiment on M19-MEL melanoma and with DMS 273 small cell lung was more than 100 µM in each case.

Regarding `CC(O)(c1ccc(OCCC[N+](C)(C)C)cc1)C(C)(O)c1ccc(OCCC[N+](C)(C)C)cc1` (stereo not drawn), the TGI in the experiment with DMS 114 small cell lung, in the experiment with LXFL 529 NSCLC, in the experiment on SNB-78 CNS, in the experiment with HOP-18 NSCLC and in the experiment on DMS 273 small cell lung was more than 100 µM throughout.

Turning to `CC1=C(C(=O)Nc2ccccc2C)C(c2ccccc2O)C(C(=O)Nc2ccccc2C)=C(C)N1`, the TGI in the experiment on DMS 114 small cell lung worked out at 50.4 µM; with LXFL 529 NSCLC it was 51 µM; with SNB-78 CNS it was 74.7 µM; in the experiment on XF 498 CNS it was 61.5 µM; in the experiment with HOP-18 NSCLC, 55.6 µM; with M19-MEL melanoma it was 52 µM. Moreover, the TGI in the experiment with DMS 273 small cell lung came to 35.2 µM.

For `COc1ccccc1/C=C1\CCC(CN2CCOCC2)C1=O` (stereo not drawn), the TGI with DMS 114 small cell lung was 35.6 µM; in the experiment with LXFL 529 NSCLC, 9.34 µM; in the experiment with RXF-631 renal it was 24.4 µM; in the experiment on SNB-78 CNS it was 48.2 µM; in the experiment on XF 498 CNS, 30.1 µM; with HOP-18 NSCLC, 31.8 µM. Moreover, the TGI turned out to be 26.9 µM in the experiment with MDA-N, 18 µM in the experiment on M19-MEL melanoma and 28.4 µM in the experiment with DMS 273 small cell lung.

Take `CSC(=NC(=O)c1ccccc1)SCCSC(=NC(=O)c1ccccc1)SC`: the TGI in the experiment with DMS 114 small cell lung, in the experiment with LXFL 529 NSCLC, with RXF-631 renal, in the experiment on SNB-78 CNS, with XF 498 CNS and in the experiment on M19-MEL melanoma was more than 100 µM each time. In the experiment with DMS 273 small cell lung, this compound registered a TGI of more than 100 µM.

With `Nc1nc(N)c(CCCCc2ccccc2)c(/C=C/c2ccc([N+](=O)[O-])cc2)n1`, the TGI in the experiment on DMS 114 small cell lung turned out to be 4.29 µM; in the experiment with SNB-78 CNS it was 12.8 µM; in the experiment on XF 498 CNS, 3.74 µM; in the experiment on M19-MEL melanoma it was 30.3 µM.

Take `CCCCCCCCC1C(C)c2c([nH]c3ccccc23)C2C(=O)N(c3ccccc3)C(=O)C21` (stereo not drawn): the TGI in the experiment on DMS 114 small cell lung was found to be 23.4 µM; in the experiment on LXFL 529 NSCLC, 30.1 µM; in the experiment with RXF-631 renal it was 14.2 µM; with SNB-78 CNS it was 29.8 µM; in the experiment on M19-MEL melanoma, 31.9 µM; with DMS 273 small cell lung it was 22.2 µM.

In the case of `CCCCCCCCCCCCCC(=O)NO`, the TGI with DMS 114 small cell lung is 27.2 µM; in the experiment on LXFL 529 NSCLC it was 38.7 µM; in the experiment with RXF-631 renal it was more than 62.5 µM; in the experiment on SNB-78 CNS it was more than 95 µM; in the experiment on XF 498 CNS, 60.3 µM; in the experiment with HOP-18 NSCLC, 81.6 µM. The TGI in the experiment on MDA-N was more than 100 µM; in the experiment with M19-MEL melanoma it was 56.3 µM; in the experiment on DMS 273 small cell lung, 27.3 µM.

The record behind these values is PubChem BioAssay (NCI).
